Assay results: the supplement of paper PMC10307832

Key:
Assay in all cases: relative viability (nuclei count vs DMSO), 5 days (fraction); higher = more cells survive
Metformin + Navitoclax = compound: CN(C)C(=N)NC(=N)N [Metformin] + CC1(C)CCC(c2ccc(Cl)cc2)=C(CN2CCN(c3ccc(C(=O)NS(=O)(=O)c4ccc(N[C@H](CCN5CCOCC5)CSc5ccccc5)c(S(=O)(=O)C(F)(F)F)c4)cc3)CC2)C1 [Navitoclax] (partner 0.5 µM)
In short: (§1)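 A single step with final 0.05% Triton X-100, 1% formaldehyde and 1 ug/ml Hoechst fixed the cells and stained nuclei 5 days after treatment. Lung cancer cell lines in 1536-well plates had been treated by pin tool the day after seeding with one drug alone or a fixed anchor-drug dose plus five library-drug doses (not always all listed) in √10 steps, and nuclei were counted on 4× images. Relative viability is the ratio of nuclei in treated wells to nuclei in vehicle wells, taken as the median of duplicate plates.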

Apatinib + Alpelisib = compound: N#CC1(c2ccc(NC(=O)c3cccnc3NCc3ccncc3)cc2)CCCC1 [Apatinib] + Cc1nc(NC(=O)N2CCC[C@H]2C(N)=O)sc1-c1ccnc(C(C)(C)C(F)(F)F)c1 [Alpelisib] (partner 2 µM)
In short: as §1

Metformin + Phenformin = compound: CN(C)C(=N)NC(=N)N [Metformin] + N=C(N)NC(=N)NCCc1ccccc1 [Phenformin] (partner 250 µM)
In short: as §1

Apatinib + Luminespib = compound: N#CC1(c2ccc(NC(=O)c3cccnc3NCc3ccncc3)cc2)CCCC1 [Apatinib] + CCNC(=O)c1noc(-c2cc(C(C)C)c(O)cc2O)c1-c1ccc(CN2CCOCC2)cc1 [Luminespib] (partner 0.01 µM)
In short: as §1

Row | Cell Line | relative viability (Metformin + Navitoclax; first compound 10 µM) | relative viability (Metformin + Navitoclax; first compound 31.62 µM) | relative viability (Metformin + Navitoclax; first compound 100 µM) | relative viability (Metformin + Navitoclax; first compound 316.23 µM) | relative viability (Metformin + Navitoclax; first compound 1000 µM) | relative viability (Apatinib + Alpelisib; first compound 0.08 µM) | relative viability (Apatinib + Alpelisib; first compound 0.253 µM) | relative viability (Apatinib + Alpelisib; first compound 0.8 µM) | relative viability (Apatinib + Alpelisib; first compound 2.53 µM) | relative viability (Apatinib + Alpelisib; first compound 8 µM) | relative viability (Metformin + Phenformin; first compound 10 µM) | relative viability (Metformin + Phenformin; first compound 31.62 µM) | relative viability (Metformin + Phenformin; first compound 100 µM) | relative viability (Metformin + Phenformin; first compound 316.23 µM) | relative viability (Metformin + Phenformin; first compound 1000 µM) | relative viability (Apatinib + Luminespib; first compound 0.08 µM) | relative viability (Apatinib + Luminespib; first compound 0.253 µM) | relative viability (Apatinib + Luminespib; first compound 0.8 µM) | relative viability (Apatinib + Luminespib; first compound 2.53 µM) | relative viability (Apatinib + Luminespib; first compound 8 µM)
1 | NCI-H2009 | 1.19 | 1.16 | 1.21 | 1.17 | 1.07 | 1.13 | 1.2 | 1.1 | 1.02 | 0.893 | 0.504 | 0.499 | 0.565 | 0.412 | 0.425 | 1.1 | 1.09 | 0.988 | 0.992 | 0.86
2 | NCI-H23 | 0.82 | 0.902 | 0.805 | 0.839 | 0.993 | 0.665 | 0.911 | 0.595 | 0.627 | 0.558 | 0.743 | 0.716 | 0.716 | 0.729 | 0.897 | 0.23 | 0.22 | 0.211 | 0.2 | 0.213
3 | NCI-H2087 | 0.951 | 0.86 | 0.96 | 0.782 | 0.834 | 1.19 | 1.07 | 1.03 | 0.904 | 0.666 | – | 0.435 | 0.507 | 0.398 | 0.386 | 0.186 | 0.183 | 0.185 | 0.135 | 0.149
4 | PC-14 | 0.968 | 0.958 | 0.998 | 1 | 0.989 | 0.935 | 0.861 | 0.876 | 0.875 | 0.838 | 0.72 | 0.808 | 0.77 | 0.659 | 0.697 | 0.121 | 0.15 | – | 0.167 | 0.144
5 | NCI-H596 | 0.985 | 1.15 | 1.1 | 0.908 | 1 | 0.535 | 0.528 | 0.579 | 0.402 | 0.222 | 0.84 | 0.73 | 0.689 | 0.765 | 0.952 | 1.09 | 1.2 | 0.926 | 0.97 | 0.903
6 | LOU-NH91 | 0.867 | 0.717 | 0.751 | 0.766 | 0.767 | 0.762 | 0.699 | 0.586 | 0.616 | 0.568 | 0.731 | 0.593 | 0.545 | 0.755 | 0.734 | 0.354 | 0.363 | 0.386 | 0.356 | 0.354
7 | LU99A | 0.693 | 0.743 | 0.677 | 0.814 | 0.749 | 0.565 | 0.618 | 0.457 | 0.49 | 0.461 | 0.937 | 0.816 | 0.761 | 0.775 | 0.919 | 0.294 | 0.302 | 0.221 | 0.241 | 0.213
8 | NCI-H1355 | 0.936 | 1.02 | 0.955 | 0.719 | 0.903 | 0.884 | 0.823 | 0.816 | 0.804 | 0.67 | 0.472 | 0.412 | 0.474 | 0.432 | 0.47 | 0.672 | 0.809 | 0.761 | 0.647 | 0.563
9 | NCI-H2023 | – | 0.973 | 0.876 | – | 0.567 | 0.64 | 0.675 | 0.587 | 0.514 | 0.559 | 0.396 | 0.376 | 0.408 | 0.393 | 0.354 | 0.981 | 0.917 | 0.708 | 0.507 | 0.649
10 | NCI-H2347 | 0.633 | 0.694 | 0.802 | 0.746 | 0.716 | 0.943 | 1.02 | 1 | 1.02 | 0.944 | 0.384 | 0.363 | – | 0.422 | 0.404 | 0.501 | 0.415 | 0.404 | 0.416 | 0.789
11 | LC-2-ad | – | 0.26 | 0.167 | 0.18 | 0.311 | 0.9 | 0.798 | 0.802 | 0.824 | 0.652 | – | 0.636 | 0.486 | 0.539 | 0.592 | 1.08 | 1.16 | 1.01 | 1.01 | 0.917
12 | NCI-H1793 | 0.335 | 0.395 | 0.482 | 0.442 | 0.489 | 0.576 | 0.727 | 0.471 | 0.481 | 0.593 | 0.431 | – | 0.403 | 0.366 | 0.562 | 0.185 | 0.183 | 0.157 | 0.172 | 0.193
13 | NCI-H1666 | 1.17 | 1.05 | 0.956 | 0.899 | 1.07 | 0.943 | 1.01 | 0.936 | 0.979 | 0.943 | – | 0.575 | 0.569 | 0.499 | 0.58 | 0.948 | 1.07 | 1.04 | 0.983 | 1.05
14 | SK-LU-1 | 0.891 | 0.777 | 0.976 | 0.926 | 0.953 | 1.15 | 1.15 | 0.979 | 0.906 | 0.692 | 0.608 | 0.532 | 0.501 | 0.424 | 0.54 | 0.196 | 0.201 | 0.202 | 0.182 | 0.186
15 | HOP-62 | 0.922 | 0.845 | 1.04 | 0.989 | 0.986 | 0.727 | – | 1.15 | 0.801 | 0.713 | 0.486 | 0.577 | 0.527 | 0.478 | 0.593 | 1.01 | 0.838 | 0.77 | 0.714 | 0.692
16 | CAL-12T | – | 1.35 | 1.14 | 1.29 | 1.09 | 1.11 | 1.13 | 1.22 | 1.04 | 1.04 | 0.635 | 0.61 | 0.634 | 0.555 | 0.604 | 0.565 | 0.315 | 0.261 | 0.882 | 0.661
17 | BEN | 0.0532 | 0.0708 | 0.0914 | 0.0748 | 0.0712 | 1.04 | 0.92 | 0.983 | 0.862 | 0.727 | 0.295 | 0.292 | 0.297 | 0.27 | 0.252 | 0.478 | 0.348 | 0.385 | 0.336 | 0.229
